Assay results published in patent publication US20260262643A1, “HERBICIDAL BENZOXAZINES” (FMC CORPORATION, priority 2022, published 2026).

Columns and labels:
[1] = test system: ragweed; experiment: Test A preemergence; format: in vivo, Ambrosia artemisiifolia
How it was run: (§1)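 Greenhouse pot test, 10 days. Compound (non-phytotoxic solvent, surfactant) sprayed on soil at seeding or on seedlings at one- to two-leaf stage. Visual injury rated 0–100 against untreated plants.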

[2] = test system: oat, wild; experiment: Test A postemergence; format: in vivo, Avena fatua
Source text: (§2) Seeds of plant species selected from barnyardgrass (Echinochloa crusgalli), blackgrass (Alopecurus myosuroides), corn (Zea mays), foxtail, giant (giant foxtail, Setaria faberi), goosegrass (Eleusine indica), kochia (Bassia scoparia), oat, wild (wild oat, Avena fatua), pigweed, palmer (palmer amaranth, palmer pigweed, Amaranthus palmeri), Pigweed, Redroot (redroot pigweed, Amaranthus retroflexus), ragweed (common ragweed, Ambrosia artemisiifolia), ryegrass, Italian (italian ryegrass, Lolium multiflorum), soybean (Glycine max), and wheat (Triticum aestivum) were planted into a blend of loam soil and sand and treated preemergence with a directed soil spray using test chemicals formulated in a non-phytotoxic solvent mixture which included a surfactant. At the same time, plants selected from these crops and weed species and also galium (catchweed bedstraw, Galium aparine) and horseweed (Erigeron canadensis) were planted in pots containing the same blend of loam soil and sand and treated with postemergence applications of test chemicals formulated in the same manner. Plants ranged in height from 2 to 10 cm and were in the one- to two-leaf stage for the postemergence treatment. Treated plants and untreated controls were maintained in a greenhouse for 10 days, after which time all treated plants were compared to untreated controls and visually evaluated for injury. Plant response ratings, summarized in Table A, are based on a 0 to 100 scale where 0 is no effect and 100 is complete control. A dash (-) response means no test result.

[3] = test system: ducksalad; experiment: Test B flooded paddy test; format: in vivo, Heteranthera limosa; settings: 250 g ai/ha, Flood, 13 days, 0 to 100 scale (0 no effect, 100 complete control)
How it was run: (§3)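 Visual scores from 0 (no effect) to 100 (complete kill) were assigned 13 days after treatment by comparison with controls. Seedlings had been treated at two leaves by adding compound to floodwater standing 3 cm deep, kept at that level in the greenhouse.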

[4] = test system: kochia; experiment: Test A preemergence; format: in vivo, Bassia scoparia
How it was run: as §1

[5] = test system: rice; experiment: Test B flooded paddy test; format: in vivo, Oryza sativa; settings: 250 g ai/ha, Flood, 13 days, 0 to 100 scale (0 no effect, 100 complete control)
How it was run: as §3

[6] = test system: ryegrass, Italian; experiment: Test A preemergence; format: in vivo, Lolium multiflorum
How it was run: as §1

[7] = test system: oat, wild; experiment: Test A preemergence; format: in vivo, Avena fatua
Source text: as §2

[8] = test system: kochia; experiment: Test A postemergence; format: in vivo, Bassia scoparia
How it was run: as §1

[9] = test system: foxtail, giant; experiment: Test A preemergence; format: in vivo, Setaria faberi
How it was run: as §1

[10] = test system: ryegrass, Italian; experiment: Test A postemergence; format: in vivo, Lolium multiflorum
How it was run: as §1

[11] = test system: corn; experiment: Test A postemergence; format: in vivo, Zea mays
Source text: as §2

[12] = test system: foxtail, giant; experiment: Test A postemergence; format: in vivo, Setaria faberi
How it was run: as §1

[13] = test system: barnyardgrass; experiment: Test B flooded paddy test; format: in vivo, Echinochloa crus-galli; settings: 250 g ai/ha, Flood, 13 days, 0 to 100 scale (0 no effect, 100 complete control)
How it was run: as §3

[14] = test system: ragweed; experiment: Test A postemergence; format: in vivo, Ambrosia artemisiifolia
How it was run: as §1

[15] = test system: wheat; experiment: Test A preemergence; format: in vivo, Triticum aestivum
Source text: as §2

[16] = test system: sedge, umbrella; experiment: Test B flooded paddy test; format: in vivo, Cyperus difformis; settings: 250 g ai/ha, Flood, 13 days, 0 to 100 scale (0 no effect, 100 complete control)
How it was run: as §3

[17] = test system: pigweed, palmer; experiment: Test A preemergence; format: in vivo, Amaranthus palmeri
How it was run: as §1

[18] = test system: goosegrass; experiment: Test A preemergence; format: in vivo, Eleusine indica
How it was run: as §1

[19] = test system: blackgrass; experiment: Test A postemergence; format: in vivo, Alopecurus myosuroides
How it was run: as §1

[20] = test system: galium; experiment: Test A postemergence; format: in vivo, Galium aparine
How it was run: as §1

[21] = test system: soybean; experiment: Test A postemergence; format: in vivo, Glycine max
Source text: as §2

[22] = test system: pigweed, palmer; experiment: Test A postemergence; format: in vivo, Amaranthus palmeri
How it was run: as §1

[23] = test system: goosegrass; experiment: Test A postemergence; format: in vivo, Eleusine indica
How it was run: as §1

[24] = test system: corn; experiment: Test A preemergence; format: in vivo, Zea mays
Source text: as §2

[25] = test system: soybean; experiment: Test A preemergence; format: in vivo, Glycine max
Source text: as §2

[26] = test system: wheat; experiment: Test A postemergence; format: in vivo, Triticum aestivum
Source text: as §2

[27] = test system: blackgrass; experiment: Test A preemergence; format: in vivo, Alopecurus myosuroides
How it was run: as §1

[28] = 125 g ai/ha, visual injury after 10 days, 0 to 100 scale, 0 is no effect, 100 is complete control
[29] = 500 g ai/ha, 0 to 100 scale (0 no effect, 100 complete control), 10 days
[30] = 125 g ai/ha, postemergence, 10 days, visual injury, 0 to 100 scale (0 no effect, 100 complete control)
[31] = 500 g ai/ha, Postemergence, 0 to 100 scale

CC1CN(C(=O)c2cc(F)cc(-n3cncn3)c2)c2cccc(Cl)c2O1 (centres unmarked) [Compound 37]
Plant response rating, Ragweed [1, 28]: 0 | Plant response rating, Ragweed [1, 29]: 0 | Plant response rating, Oat, Wild [2, 30]: 0 | Plant response rating, Oat, Wild [2, 31]: 30 | Plant response rating, Ducksalad [3]: 0 | Plant response rating, Kochia [4, 28]: 0 | Plant response rating, Kochia [4, 29]: 20 | Plant response rating, Rice [5]: 0 | Plant response rating, Ryegrass, Italian [6, 28]: 80 | Plant response rating, Ryegrass, Italian [6, 29]: 90 | Plant response rating, Oat, Wild [7, 28]: 0 | Plant response rating, Oat, Wild [7, 29]: 60 | Plant response rating, Kochia [8, 30]: 50 | Plant response rating, Kochia [8, 31]: 90 | Plant response rating, Foxtail, Giant [9, 28]: 90 | Plant response rating, Foxtail, Giant [9, 29]: 100 | Plant response rating, Ryegrass, Italian [10, 30]: 30 | Plant response rating, Ryegrass, Italian [10, 31]: 90 | Plant response rating, Corn [11, 30]: 10 | Plant response rating, Corn [11, 31]: 80 | Plant response rating, Foxtail, Giant [12, 30]: 50 | Plant response rating, Foxtail, Giant [12, 31]: 90 | Plant response rating, Barnyardgrass [13]: 0 | Plant response rating, Ragweed [14, 30]: 0 | Plant response rating, Ragweed [14, 31]: 0 | Plant response rating, Wheat [15, 28]: 0 | Plant response rating, Wheat [15, 29]: 20 | Plant response rating, Sedge, Umbrella [16]: 0 | Plant response rating, Pigweed, Palmer [17, 28]: 50 | Plant response rating, Pigweed, Palmer [17, 29]: 90 | Plant response rating, Goosegrass [18, 28]: 90 | Plant response rating, Goosegrass [18, 29]: 100 | Plant response rating, Blackgrass [19, 30]: 30 | Plant response rating, Blackgrass [19, 31]: 80 | Plant response rating, Galium [20, 30]: 40 | Plant response rating, Galium [20, 31]: 100 | Plant response rating, Soybean [21, 30]: 100 | Plant response rating, Soybean [21, 31]: 100 | Plant response rating, Pigweed, Palmer [22, 30]: 30 | Plant response rating, Pigweed, Palmer [22, 31]: 60 | Plant response rating, Goosegrass [23, 30]: 40 | Plant response rating, Goosegrass [23, 31]: 90 | Plant response rating, Corn [24, 28]: 0 | Plant response rating, Corn [24, 29]: 20 | Plant response rating, Soybean [25, 28]: 0 | Plant response rating, Soybean [25, 29]: 70 | Plant response rating, Wheat [26, 30]: 40 | Plant response rating, Wheat [26, 31]: 80 | Plant response rating, Blackgrass [27, 28]: 60 | Plant response rating, Blackgrass [27, 29]: 80
